Patent US11753446B2, “Beta-hairpin peptidomimetics” (POLYPHOR AG, priority 2014, dated 2023)
Read-outs that look alike come from different tables or passages of the source. Where a SMILES comes first, the peptide text is derived from it. Bridges are numbered along the chain shown (N, C = ends). [ ]: non-standard residue; d: D form. Tle = CC(C)(C)[C@H](N)C(=O)O; dDab = NCC[C@@H](N)C(=O)O; Orn = NCCC[C@H](N)C(=O)O; Dab = NCC[C@H](N)C(=O)O; Dap = NC[C@H](N)C(=O)O

Legend:
[1] = test system: Acinetobacter baumannii DSM 30008; format: cell-based
How it was run: (§1)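 Peptide MICs were determined by NCCLS broth microdilution in cation-adjusted Mueller-Hinton II broth. Inoculum was about 10^6 CFU/mL, matched to 0.5 McFarland, with peptides in two-fold serial dilutions. The broth contained Polysorbate 80 at 0.002% final concentration.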

[2] = test system: Escherichia coli ATCC 25922; format: cell-based
How it was run: as §1

[3] = test system: Klebsiella pneumoniae ATCC 13883; format: cell-based
How it was run: as §1

[4] = test system: human red blood cells (hRBC); assay: Hemolysis: hemolytic activity at 100 μg/mL, 1 h at 37° C.
How it was run: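 Peptides at 100 μg/mL incubated with washed 20% (v/v) human erythrocytes (~0.9×10^9 cells/mL) for 1 h at 37 °C with shaking. Released hemoglobin read at OD 540 nm in supernatant; 0% and 100% lysis from PBS/0.001% acetic acid and 2.5% Triton X-100.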

[5] = Mueller-Hinton II broth, 18-20 hours at 35° C.

SMILES	Acinetobacter baumannii DSM 30008 MIC ([1]; DSM 30008) [mg/L]	Escherichia coli ATCC 25922 MIC ([2]; ATCC 25922) [mg/L]	Klebsiella pneumoniae ATCC 13883 MIC ([3]; ATCC 13883) [mg/L]	Hemolysis at 100 μg/mL ([4]; red cells of human, 1 h, 100) [%]	Acinetobacter baumannii DSM 30008 MIC [1, 5] [mg/L]	Escherichia coli ATCC 25922 MIC [2, 5] [mg/L]	Klebsiella pneumoniae ATCC 13883 MIC [3, 5] [mg/L]	Hemolysis at 100 μg/mL ([4]; 100 μg/mL, 20% hRBC, 1 h at 37° C.) [%]
CC[C@H](C)[C@@H]1NC(=O)[C@H](Cc2ccc(O)cc2)NC(=O)[C@@H](C)NC(=O)[C@H](CO)NC(=O)[C@@H]2CSSC[C@H](NC1=O)C(=O)N[C@@H](Cc1ccc(O)cc1)C(=O)N[C@@H](CCN)C(=O)N[C@@H](CCCN)C(=O)N[C@H](CCN)C(=O)N[C@@H](CCN)C(=O)N[C@@H](Cc1c[nH]c3ccccc13)C(=O)N[C@@H](CCN)C(=O)N[C@@H](C(C)(C)C)C(=O)N2 [Example 16, cyclo(-Ile-Cys-Tyr-Dab-Orn-^DDab-Dab-Trp-Dab-tBuGly-Cys-Ser-^DAla-Tyr-)] (HELM PEPTIDE1{C.S.[dA].Y.I.C.Y.[Dab].[Orn].[NCC[C@@H](N[*:1])C(=O)[*:2]].[Dab].W.[Dab].[CC(C)(C)[C@H](N[*:1])C(=O)[*:2]]}$PEPTIDE1,PEPTIDE1,1:R3-6:R3|PEPTIDE1,PEPTIDE1,1:R1-14:R2$$$V2.0)	1	0.5	0.5	1	–	–	–	–
CC(C)[C@@H]1NC(=O)[C@@H]2CCCN2C(=O)[C@@H](C)NC(=O)[C@H](CO)NC(=O)[C@@H]2CC(=O)NCC[C@H](NC1=O)C(=O)N[C@@H](Cc1ccc(O)cc1)C(=O)N[C@@H](CCN)C(=O)N[C@@H](CN)C(=O)N[C@H](CCN)C(=O)N[C@@H](CCN)C(=O)N[C@@H](Cc1c[nH]c3ccccc13)C(=O)N[C@@H](CCN)C(=O)N[C@@H](C(C)(C)C)C(=O)N2 [Example 27, cyclo(-Val-Dab-Tyr-Dab-Dap-^DDab-Dab-Trp-Dab-tBuGly-Asp-Ser-^DAla-Pro-)] (cyclo(DS[dA]PV[Dab]Y[Dab][Dap][dDab][Dab]W[Dab][Tle]); lactam 1-6)	1	0.5	0.5	2	–	–	–	–
CC[C@H](C)[C@@H]1NC(=O)[C@H](CCCNC(=N)N)NC(=O)[C@@H](CCN)NC(=O)[C@H](Cc2ccc(O)cc2)NC(=O)[C@@H]2CSSC[C@H](NC1=O)C(=O)N[C@@H](Cc1ccc(O)cc1)C(=O)N[C@@H](CC(N)=O)C(=O)N[C@@H](CCCN)C(=O)N[C@H](CCN)C(=O)N[C@@H](CCN)C(=O)N[C@@H](CC(C)C)C(=O)N[C@@H](CO)C(=O)N[C@@H](C(C)C)C(=O)N2 [Example 5, cyclo(-Ile-Cys-Tyr-Asn-Orn-^DDab-Dab-Leu-Ser-Val-Cys-Tyr-^DDab-Arg-)] (HELM PEPTIDE1{C.Y.N.[Orn].[NCC[C@@H](N[*:1])C(=O)[*:2]].[Dab].L.S.V.C.Y.[NCC[C@@H](N[*:1])C(=O)[*:2]].R.I}$PEPTIDE1,PEPTIDE1,1:R3-10:R3|PEPTIDE1,PEPTIDE1,1:R1-14:R2$$$V2.0)	0.25	0.5	0.25	4	–	–	–	–
CC[C@H](C)[C@@H]1NC(=O)[C@@H]2CCCN2C(=O)[C@@H](CCN)NC(=O)[C@H](CO)NC(=O)[C@H](C)NC(=O)[C@H](C(C)(C)C)NC(=O)[C@H](CCN)NC(=O)[C@H](Cc2c[nH]c3ccccc23)NC(=O)[C@H](CCN)NC(=O)[C@@H](CCN)NC(=O)[C@H](CCCN)NC(=O)[C@H](CCN)NC(=O)[C@H](Cc2ccc(O)cc2)NC(=O)[C@H]([C@@H](C)O)NC1=O [Example 48, cyclo(-Ile-Thr-Tyr-Dab-Orn-^DDab-Dab-Trp-Dab-tBuGly-Ala-Ser-^DDab-Pro-)] (cyclo(AS[dDab]PITY[Dab][Orn][dDab][Dab]W[Dab][Tle]))	8	1	2	1	–	–	–	–
CC(C)C[C@@H]1NC(=O)[C@H](CCCNC(=N)N)NC(=O)[C@@H](CCN)NC(=O)[C@H](C(C)C)NC(=O)[C@@H]2CSSC[C@H](NC1=O)C(=O)N[C@@H](Cc1ccc(O)cc1)C(=O)N[C@@H](CN)C(=O)N[C@@H](CCCN)C(=O)N[C@H](CCN)C(=O)N[C@@H](CCN)C(=O)N[C@@H](Cc1c[nH]c3ccccc13)C(=O)N[C@@H](CO)C(=O)N[C@@H](Cc1ccc(O)cc1)C(=O)N2 [Example 72, cyclo(-Leu-Cys-Tyr-Dap-Orn-^DDab-Dab-Trp-Ser-Tyr-Cys-Val-^DDab-Arg-)] (cyclo(CV[dDab]RLCY[Dap][Orn][dDab][Dab]WSY); disulfide 1-6)	0.625	0.75	0.5	3	–	–	–	–
CC(C)C[C@@H]1NC(=O)[C@H](CCCNC(=N)N)NC(=O)[C@@H](CCN)NC(=O)[C@H](C(C)C)NC(=O)[C@@H]2CSSC[C@H](NC1=O)C(=O)N[C@@H](Cc1ccc(O)cc1)C(=O)N[C@@H](C)C(=O)N[C@@H](CCCN)C(=O)N[C@H](CCN)C(=O)N[C@@H](CCN)C(=O)N[C@@H](Cc1ccccc1)C(=O)N[C@@H](C)C(=O)N[C@@H](Cc1ccc(O)cc1)C(=O)N2 [Example 19, cyclo(-Leu-Cys-Tyr-Ala-Orn-^DDab-Dab-Phe-Ala-Tyr-Cys-Val-^DDab-Arg-)] (HELM PEPTIDE1{A.[Orn].[NCC[C@@H](N[*:1])C(=O)[*:2]].[Dab].F.A.Y.C.V.[NCC[C@@H](N[*:1])C(=O)[*:2]].R.L.C.Y}$PEPTIDE1,PEPTIDE1,8:R3-13:R3|PEPTIDE1,PEPTIDE1,1:R1-14:R2$$$V2.0)	1	0.5	1	1	–	–	–	–
CC(C)[C@@H]1NC(=O)[C@@H]2CCCN2C(=O)[C@@H](Cc2ccc(O)cc2)NC(=O)[C@H]([C@@H](C)O)NC(=O)[C@@H]2CSSC[C@H](NC1=O)C(=O)N[C@@H](Cc1ccc(O)cc1)C(=O)N[C@@H](CCN)C(=O)N[C@@H](CN)C(=O)N[C@@H](CCN)C(=O)N[C@@H](CCN)C(=O)N[C@@H](Cc1c[nH]c3ccccc13)C(=O)N[C@@H](CCN)C(=O)N[C@@H](C(C)(C)C)C(=O)N2 [Example 15, cyclo(-Val-Cys-Tyr-Dab-Dap-Dab-Dab-Trp-Dab-tBuGly-Cys-Thr-^DTyr-Pro-)] (HELM PEPTIDE1{C.T.[dY].P.V.C.Y.[Dab].[NC[C@H](N[*:1])C(=O)[*:2]].[Dab].[Dab].W.[Dab].[CC(C)(C)[C@H](N[*:1])C(=O)[*:2]]}$PEPTIDE1,PEPTIDE1,1:R3-6:R3|PEPTIDE1,PEPTIDE1,1:R1-14:R2$$$V2.0)	–	–	–	–	0.5	0.5	0.25	2
CC(C)[C@@H]1NC(=O)[C@@H]2CCCN2C(=O)[C@@H]([C@H](C)O)NC(=O)[C@H]([C@@H](C)O)NC(=O)[C@@H]2CC(=O)NCC[C@H](NC1=O)C(=O)N[C@@H](Cc1ccc(O)cc1)C(=O)N[C@@H](CCN)C(=O)N[C@@H](CN)C(=O)N[C@H](CCN)C(=O)N[C@@H](CCN)C(=O)N[C@@H](Cc1c[nH]c3ccccc13)C(=O)N[C@@H](CCN)C(=O)N[C@@H](C(C)(C)C)C(=O)N2 [Example 29, cyclo(-Val-Dab-Tyr-Dab-Dap-^DDab-Dab-Trp-Dab-tBuGly-Asp-Thr-^DThr-Pro-)] (cyclo(V[Dab]Y[Dab][Dap][dDab][Dab]W[Dab][Tle]DT[dT]P); lactam 2-11)	1	0.5	0.5	2	–	–	–	–
CC(C)C[C@@H]1NC(=O)[C@H](CCCNC(=N)N)NC(=O)[C@@H](CCN)NC(=O)[C@H](Cc2ccc(O)cc2)NC(=O)[C@@H]2CSSC[C@H](NC1=O)C(=O)N[C@@H](Cc1ccc(O)cc1)C(=O)N[C@@H](CC(N)=O)C(=O)N[C@@H](CCCN)C(=O)N[C@H](CCN)C(=O)N[C@@H](CCN)C(=O)N[C@@H](Cc1c[nH]c3ccccc13)C(=O)N[C@@H](CO)C(=O)N[C@@H](Cc1ccc(O)cc1)C(=O)N2 [Example 11, cyclo(-Leu-Cys-Tyr-Asn-Orn-^DDab-Dab-Trp-Ser-Tyr-Cys-Tyr-^DDab-Arg-)] (HELM PEPTIDE1{C.Y.N.[Orn].[NCC[C@@H](N[*:1])C(=O)[*:2]].[Dab].W.S.Y.C.Y.[NCC[C@@H](N[*:1])C(=O)[*:2]].R.L}$PEPTIDE1,PEPTIDE1,1:R3-10:R3|PEPTIDE1,PEPTIDE1,1:R1-14:R2$$$V2.0)	0.5	0.25	0.25	4	–	–	–	–
CC(C)C[C@@H]1NC(=O)[C@H](CCCNC(=N)N)NC(=O)[C@@H](C)NC(=O)[C@H](C(C)C)NC(=O)[C@@H]2CSSC[C@H](NC1=O)C(=O)N[C@@H](Cc1ccc(O)cc1)C(=O)N[C@@H](CCN)C(=O)N[C@@H](CCCN)C(=O)N[C@H](CCN)C(=O)N[C@@H](CCN)C(=O)N[C@@H](Cc1c[nH]c3ccccc13)C(=O)N[C@@H](CC(N)=O)C(=O)N[C@@H](Cc1ccc(O)cc1)C(=O)N2 [Example 73, cyclo(-Leu-Cys-Tyr-Dab-Orn-^DDab-Dab-Trp-Asn-Tyr-Cys-Val-^DAla-Arg-)] (HELM PEPTIDE1{C.V.[dA].R.L.C.Y.[Dab].[Orn].[NCC[C@@H](N[*:1])C(=O)[*:2]].[Dab].W.N.Y}$PEPTIDE1,PEPTIDE1,1:R3-6:R3|PEPTIDE1,PEPTIDE1,1:R1-14:R2$$$V2.0)	1.5	0.75	1	1	–	–	–	–
